Reference: patent publication US20220193189A1, “USE OF Dvl3-DEP PEPTIDE IN PREPARATION OF MEDICAMENT FOR REPAIRING SERTOLI CELL INJURY IN TESTES” (The Second Affiliated Hospital and Yuying Children's …, priority 2020, published 2022)

Assays:
Sertoli cells = assay: IF staining of tight junction-associated protein ZO-1 in Sertoli cells in vitro; format: cell-based, SD rat; conditions: PFOS 20 μM for 24 h, empty plasmid transfection group, day 6, vs blank control group
Excerpt: A total of 10 male SD rats at the age of 20 days were sacrificed and testes were collected. The testicular envelope and free seminiferous tubules were removed, and the remaining tissue was cut to 1 mm^3 with scissors and then digested successively with trypsin, protease inhibitor, collagenase, hyaluronidase, and other enzymes. Cell masses obtained from digestion were pipetted up and down with a glass Pasteur pipette and then subjected to density gradient centrifugation, and finally the volume of precipitated cells was measured and converted into the number of cells. Finally, the cells were cultivated in an F12/DMEM cell culture medium with human transferrin (5 μg/mL), bovine insulin (10 μg/mL), bacitracin (5 μg/mL), epithelial growth factor (EGF) (2.5 ng/mL), and the like. The cells were cultivated at 5% CO2 and 35° C. to obtain primary Sertoli cells. […]
In order to observe the tight junction morphology among Sertoli cells cultivated in vitro, IF staining (green fluorescent) was conducted using an antibody for the Sertoli cell tight junction-associated protein ZO-1 (ThermoFisher, 61-7300), and the nucleus was stained with DAPI (blue fluorescence) after the above staining. After mounting, a fluorescence microscope was used to observe and take pictures.

[1] = test system: polymerized/free Actin in Sertoli cells; assay: G-Actin/F-actin polymerization test (ultracentrifugation, Western blot); format: cell-based, SD rat; conditions: after PFOS treatment
Excerpt: (§1) A total of 10 male SD rats at the age of 20 days were sacrificed and testes were collected. The testicular envelope and free seminiferous tubules were removed, and the remaining tissue was cut to 1 mm^3 with scissors and then digested successively with trypsin, protease inhibitor, collagenase, hyaluronidase, and other enzymes. Cell masses obtained from digestion were pipetted up and down with a glass Pasteur pipette and then subjected to density gradient centrifugation, and finally the volume of precipitated cells was measured and converted into the number of cells. Finally, the cells were cultivated in an F12/DMEM cell culture medium with human transferrin (5 μg/mL), bovine insulin (10 μg/mL), bacitracin (5 μg/mL), epithelial growth factor (EGF) (2.5 ng/mL), and the like. The cells were cultivated at 5% CO2 and 35° C. to obtain primary Sertoli cells.
Isolation and cultivation of cells were conducted according to the method in Example 2, and obtained cells were inoculated in a prepared 6-well plate. Cells in each group were collected immediately after the experiment ended. Related Actin and Tubulin polymerization tests were conducted on cells in the DEP peptide overexpression group and cells in the empty plasmid transfection group using G-Actin/F-actin polymerization detection kit (G-Actin/F-actin In Vivo Assay Biochem Kit, BK037, Cytoskeleton, Inc) and Microtubule/Tubulin polymerization detection kit (Microtubule/Tubulin In Vivo Assay Biochem Kit, BK038, Cytoskeleton, Inc). Related detection methods can refer to product descriptions. The main purpose of these tests is to separate polymerized cytoskeleton proteins (F-actin and Microtubule) and free monomeric cytoskeleton proteins (G-actin and Tubulin) in a cell lysate by ultracentrifugation. Then the polymerized cytoskeleton protein (a precipitate obtained from the ultracentrifugation) and the monomeric cytoskeleton protein (a supernatant obtained from the ultracentrifugation) in the cell lysate system were detected separately by Western blot. […]

[2] = test system: polymerized/free Tubulin in Sertoli cells; assay: Microtubule/Tubulin polymerization test (ultracentrifugation, Western blot); format: cell-based, SD rat; conditions: after PFOS treatment
Excerpt: as §1
Isolation and cultivation of cells were conducted according to the method in Example 2, and obtained cells were inoculated in a prepared 6-well plate. Cells in each group were collected immediately after the experiment ended. […] Then the polymerized cytoskeleton protein (a precipitate obtained from the ultracentrifugation) and the monomeric cytoskeleton protein (a supernatant obtained from the ultracentrifugation) in the cell lysate system were detected separately by Western blot. […]

[3] = cited from earlier work
[4] = pCI-neo empty plasmid transfection group

Row | Molecule | cell-cell junction interface (ZO-1 IF staining) (Sertoli cells) | F-actin level (precipitate of ultracentrifugation, Western blot) [1, 4] | Microtubule level (precipitate of ultracentrifugation, Western blot) [2, 4] | human metabolic half-life [3] | F-actin level (precipitate of ultracentrifugation, Western blot) ([1]; DEP peptide overexpression group, positive control 0.1 uM phalloidin) | free G-actin content in the cell lysate supernatant (Western blot) ([1]; empty plasmid transfection group vs DEP peptide overexpression group) | Microtubule level (precipitate of ultracentrifugation, Western blot) ([2]; DEP peptide overexpression group, positive control 20 uM paclitaxel)
1 | O=S(=O)(O)C(F)(F)C(F)(F)C(F)(F)C(F)(F)C(F)(F)C(F)(F)C(F)(F)C(F)(F)F [PFOS, Perfluorooctane sulphonate] | significantly damaged | low, which was almost comparable to that in the negative control group | low, which was almost comparable to that in the negative control group | more than 5 years | – | – | –
2 | DEP peptide: Dvl3-DEP peptide with amino acid sequence SEQ ID NO. 1, overexpressed in Sertoli cells (protein, amino acid sequence of Dvl3-DEP peptide, 1, overexpressed in Sertoli cells) PESGLEVRDRMWLKITIPNAFIGSDVVDWLYHNVEGFTDRREARKYASNLLKAGFIRHTVNKITFSEQCYYIFGD | – | – | – | – | lower than that in the positive control group but significantly higher than that in the empty plasmid transfection group | empty plasmid transfection group was higher than that of the DEP peptide overexpression group | lower than that in the positive control group but significantly higher than that in the empty plasmid transfection group
